Data: the supplement of paper PMC11451515

Assays:
Details in all cases: 48 h
NOMO1 [1] = test: cell viability relative to DMSO control; higher = less cytotoxic
Procedure, shortened: (§1)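 NOMO1 or SEM (500 cells/well) or P12-Ichikawa (1000 cells/well) leukemia cells were adapted for at least four passages in each medium. They were seeded in 1536-well plates (5 μl) and pin-dosed with library compounds in DMSO over an 11-point threefold series, 47 μM to 0.79 nM. CellTiter-Glo One luminescence was read after 48 h at 37°C. Viability is the per-plate percentage relative to DMSO wells, with cell-free wells as background.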

P12-Ichikawa [2] = test: as above
Procedure, shortened: as §1

SEM cells [3] = test: as above
Procedure, shortened: as §1

NOMO1 [4] = test: AUC of viability dose-response curve (% viability x log10 dose units); higher = less sensitive
Procedure, shortened: (§2)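 Seeding of medium-adapted leukemia cells was at 500 or 1000 cells/well in 1536-well plates, followed by 48 h at 37°C with library compounds in DMSO at 11 threefold doses from 47 μM to 0.79 nM. CellTiter-Glo One luminescence was normalised per plate to DMSO and cell-free wells and fitted as a four-parameter log-logistic function of log10 dose. Area under the curve was integrated by trapezoidal rule, with curves exceeding full viability scaled and curves failing quality control removed.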

P12-Ichikawa [5] = test: as above
Procedure, shortened: as §2

SEM cells [6] = test: as above
Procedure, shortened: as §2

COc1ccc(-c2cc3nccn3c(Nc3ncccc3C(N)=O)n2)cc1OC
cell viability [%]
Details | NOMO1 [1] | P12-Ichikawa [2] | SEM cells [3]
HPLM + 10% dialyzed FBS, 0.000781 µM | 125 | 103 | 81.8
HPLM + 10% dialyzed FBS, 0.00234 µM | 111 | 112 | 92.1
HPLM + 10% dialyzed FBS, 0.00702 µM | 107 | 110 | 90.4
HPLM + 10% dialyzed FBS, 0.0211 µM | 117 | 112 | 86.8
HPLM + 10% dialyzed FBS, 0.0632 µM | 124 | 113 | 85.7
HPLM + 10% dialyzed FBS, 0.19 µM | 111 | 119 | 91.4
HPLM + 10% dialyzed FBS, 0.569 µM | 110 | 117 | 85.3
HPLM + 10% dialyzed FBS, 1.71 µM | 96.6 | 115 | 61.6
HPLM + 10% dialyzed FBS, 5.12 µM | 109 | 116 | 74.4
HPLM + 10% dialyzed FBS, 15.4 µM | 89 | 114 | 65.9
HPLM + 10% dialyzed FBS, 46.1 µM | 93 | 109 | 58.8
RPMI 5 mM glucose + 10% FBS, 0.000781 µM | 90 | 97.4 | 82.7
RPMI 5 mM glucose + 10% FBS, 0.00234 µM | 95.3 | 109 | 105
RPMI 5 mM glucose + 10% FBS, 0.00702 µM | 118 | 105 | 103
RPMI 5 mM glucose + 10% FBS, 0.0211 µM | 107 | 111 | 100
RPMI 5 mM glucose + 10% FBS, 0.0632 µM | 99.7 | 111 | 99
RPMI 5 mM glucose + 10% FBS, 0.19 µM | 111 | 109 | 87.2
RPMI 5 mM glucose + 10% FBS, 0.569 µM | 95 | 97.4 | 89.2
RPMI 5 mM glucose + 10% FBS, 1.71 µM | 103 | 104 | 63.1
RPMI 5 mM glucose + 10% FBS, 5.12 µM | 102 | 114 | 81
RPMI 5 mM glucose + 10% FBS, 15.4 µM | 92.7 | 107 | 60.7
RPMI 5 mM glucose + 10% FBS, 46.1 µM | 103 | 96.5 | 58.1
RPMI 5 mM glucose + 10% dialyzed FBS, 0.000781 µM | 106 | 99 | 85.7
RPMI 5 mM glucose + 10% dialyzed FBS, 0.00234 µM | 106 | 111 | 91.6
RPMI 5 mM glucose + 10% dialyzed FBS, 0.00702 µM | 113 | 111 | 86.6
RPMI 5 mM glucose + 10% dialyzed FBS, 0.0211 µM | 95.2 | 105 | 101
RPMI 5 mM glucose + 10% dialyzed FBS, 0.0632 µM | 116 | 110 | 91
RPMI 5 mM glucose + 10% dialyzed FBS, 0.19 µM | 107 | 115 | 76.2
RPMI 5 mM glucose + 10% dialyzed FBS, 0.569 µM | 106 | 116 | 68.5
RPMI 5 mM glucose + 10% dialyzed FBS, 1.71 µM | 105 | 90.9 | 49.9
RPMI 5 mM glucose + 10% dialyzed FBS, 5.12 µM | 107 | 114 | 59.3
RPMI 5 mM glucose + 10% dialyzed FBS, 15.4 µM | 109 | 101 | 49.1
RPMI 5 mM glucose + 10% dialyzed FBS, 46.1 µM | 101 | 102 | 49.5

AUC of viability dose-response curve
Details | NOMO1 [4] | P12-Ichikawa [5] | SEM cells [6]
HPLM + 10% dialyzed FBS | 444 | 471 | 380
RPMI 5 mM glucose + 10% FBS | 476 | 475 | 405
RPMI 5 mM glucose + 10% dialyzed FBS | 473 | 471 | 352

OC(=O)C1=CC=C(NC2=NC3=C(C\N=C(/C4=CC(=CC=C34)Cl)C5=C(F)C=CC=C5F)C=N2)C=C1
cell viability [%]
Details | NOMO1 [1] | P12-Ichikawa [2] | SEM cells [3]
HPLM + 10% dialyzed FBS, 0.000781 µM | 87.2 | 93.9 | 88.5
HPLM + 10% dialyzed FBS, 0.00234 µM | 96.6 | 101 | 98.5
HPLM + 10% dialyzed FBS, 0.00702 µM | 104 | 97.8 | 87.5
HPLM + 10% dialyzed FBS, 0.0211 µM | 122 | 105 | 97.9
HPLM + 10% dialyzed FBS, 0.0632 µM | 97.9 | 104 | 101
HPLM + 10% dialyzed FBS, 0.19 µM | 103 | 89.4 | 96
HPLM + 10% dialyzed FBS, 0.569 µM | 87.6 | 77.6 | 114
HPLM + 10% dialyzed FBS, 1.71 µM | 45.2 | 48.5 | 65.8
HPLM + 10% dialyzed FBS, 5.12 µM | 44 | 27.1 | 59.7
HPLM + 10% dialyzed FBS, 15.4 µM | 59.1 | 18.6 | 36.9
HPLM + 10% dialyzed FBS, 46.1 µM | 72 | 18.3 | 40.3
RPMI 5 mM glucose + 10% FBS, 0.000781 µM | 81.9 | 95.8 | 96
RPMI 5 mM glucose + 10% FBS, 0.00234 µM | 96.8 | 99.1 | 93
RPMI 5 mM glucose + 10% FBS, 0.00702 µM | 80 | 106 | 113
RPMI 5 mM glucose + 10% FBS, 0.0211 µM | 91.3 | 107 | 99.9
RPMI 5 mM glucose + 10% FBS, 0.0632 µM | 90.4 | 110 | 109
RPMI 5 mM glucose + 10% FBS, 0.19 µM | 79.9 | 93.9 | 91
RPMI 5 mM glucose + 10% FBS, 0.569 µM | 82.3 | 74.4 | 109
RPMI 5 mM glucose + 10% FBS, 1.71 µM | 32.8 | 48.9 | 60.2
RPMI 5 mM glucose + 10% FBS, 5.12 µM | 37.8 | 27 | 37.3
RPMI 5 mM glucose + 10% FBS, 15.4 µM | 56.4 | 24.7 | 28.4
RPMI 5 mM glucose + 10% FBS, 46.1 µM | 56.4 | 25.1 | 23.2
RPMI 5 mM glucose + 10% dialyzed FBS, 0.000781 µM | 93.2 | 98.1 | 88.6
RPMI 5 mM glucose + 10% dialyzed FBS, 0.00234 µM | 95.7 | 95.1 | 98.5
RPMI 5 mM glucose + 10% dialyzed FBS, 0.00702 µM | 89.2 | 96.2 | 86
RPMI 5 mM glucose + 10% dialyzed FBS, 0.0211 µM | 94.1 | 91.4 | 105
RPMI 5 mM glucose + 10% dialyzed FBS, 0.0632 µM | 89.8 | 101 | 90.8
RPMI 5 mM glucose + 10% dialyzed FBS, 0.19 µM | 97.8 | 95.4 | 95.7
RPMI 5 mM glucose + 10% dialyzed FBS, 0.569 µM | 77.3 | 75.7 | 107
RPMI 5 mM glucose + 10% dialyzed FBS, 1.71 µM | 35 | 52.3 | 58.6
RPMI 5 mM glucose + 10% dialyzed FBS, 5.12 µM | 38.8 | 36.6 | 39
RPMI 5 mM glucose + 10% dialyzed FBS, 15.4 µM | 55.9 | 32.6 | 28.4
RPMI 5 mM glucose + 10% dialyzed FBS, 46.1 µM | 61.4 | 30.7 | 32.2

AUC of viability dose-response curve
Details | NOMO1 [4] | P12-Ichikawa [5] | SEM cells [6]
HPLM + 10% dialyzed FBS | 394 | 344 | 389
RPMI 5 mM glucose + 10% FBS | 343 | 345 | 373
RPMI 5 mM glucose + 10% dialyzed FBS | 362 | 353 | 365

O=NN(CCCl)C(=O)NCCCl
cell viability [%]
Details | NOMO1 [1] | P12-Ichikawa [2] | SEM cells [3]
HPLM + 10% dialyzed FBS, 0.000781 µM | 89.1 | 87 | 75.9
HPLM + 10% dialyzed FBS, 0.00234 µM | 107 | 94.8 | 89
HPLM + 10% dialyzed FBS, 0.00702 µM | 99.1 | 108 | 117
HPLM + 10% dialyzed FBS, 0.0211 µM | 116 | 103 | 86.6
HPLM + 10% dialyzed FBS, 0.0632 µM | 128 | 103 | 100
HPLM + 10% dialyzed FBS, 0.19 µM | 113 | 114 | 121
HPLM + 10% dialyzed FBS, 0.569 µM | 127 | 100 | 107
HPLM + 10% dialyzed FBS, 1.71 µM | 101 | 101 | 121
HPLM + 10% dialyzed FBS, 5.12 µM | 106 | 102 | 94.1
HPLM + 10% dialyzed FBS, 15.4 µM | 127 | 104 | 110
HPLM + 10% dialyzed FBS, 46.1 µM | 109 | 95.2 | 85.8
RPMI 5 mM glucose + 10% FBS, 0.000781 µM | 84.4 | 83.3 | 85.4
RPMI 5 mM glucose + 10% FBS, 0.00234 µM | 99.3 | 97.9 | 105
RPMI 5 mM glucose + 10% FBS, 0.00702 µM | 102 | 100 | 104
RPMI 5 mM glucose + 10% FBS, 0.0211 µM | 104 | 96.3 | 110
RPMI 5 mM glucose + 10% FBS, 0.0632 µM | 118 | 109 | 121
RPMI 5 mM glucose + 10% FBS, 0.19 µM | 116 | 100 | 119
RPMI 5 mM glucose + 10% FBS, 0.569 µM | 107 | 97.2 | 119
RPMI 5 mM glucose + 10% FBS, 1.71 µM | 120 | 93.6 | 125
RPMI 5 mM glucose + 10% FBS, 5.12 µM | 110 | 103 | 129
RPMI 5 mM glucose + 10% FBS, 15.4 µM | 110 | 99.3 | 118
RPMI 5 mM glucose + 10% FBS, 46.1 µM | 101 | 98.6 | 102
RPMI 5 mM glucose + 10% dialyzed FBS, 0.000781 µM | 91.4 | 87 | 80.1
RPMI 5 mM glucose + 10% dialyzed FBS, 0.00234 µM | 94.5 | 95.8 | 88.3
RPMI 5 mM glucose + 10% dialyzed FBS, 0.00702 µM | 109 | 104 | 100
RPMI 5 mM glucose + 10% dialyzed FBS, 0.0211 µM | 112 | 99.7 | 87.4
RPMI 5 mM glucose + 10% dialyzed FBS, 0.0632 µM | 101 | 106 | 113
RPMI 5 mM glucose + 10% dialyzed FBS, 0.19 µM | 98.9 | 99.7 | 108
RPMI 5 mM glucose + 10% dialyzed FBS, 0.569 µM | 108 | 94.6 | 102
RPMI 5 mM glucose + 10% dialyzed FBS, 1.71 µM | 109 | 100 | 117
RPMI 5 mM glucose + 10% dialyzed FBS, 5.12 µM | 102 | 97.2 | 111
RPMI 5 mM glucose + 10% dialyzed FBS, 15.4 µM | 109 | 102 | 107
RPMI 5 mM glucose + 10% dialyzed FBS, 46.1 µM | 97.9 | 100 | 84.3

AUC of viability dose-response curve
Details | NOMO1 [4] | P12-Ichikawa [5] | SEM cells [6]
HPLM + 10% dialyzed FBS | 462 | 465 | 463
RPMI 5 mM glucose + 10% FBS | 461 | 471 | 455
RPMI 5 mM glucose + 10% dialyzed FBS | 463 | 472 | 456
